Results: ChEMBL document CHEMBL1201862, “PubChem BioAssay data set” (2004)
Activity calls are given as the source filed them.

Assays:
Protein skinhead-1 = target: T1, Protein skinhead-1 (Caenorhabditis elegans, UniProt P34707); type: functional
T1 sequence (P34707 whole entry): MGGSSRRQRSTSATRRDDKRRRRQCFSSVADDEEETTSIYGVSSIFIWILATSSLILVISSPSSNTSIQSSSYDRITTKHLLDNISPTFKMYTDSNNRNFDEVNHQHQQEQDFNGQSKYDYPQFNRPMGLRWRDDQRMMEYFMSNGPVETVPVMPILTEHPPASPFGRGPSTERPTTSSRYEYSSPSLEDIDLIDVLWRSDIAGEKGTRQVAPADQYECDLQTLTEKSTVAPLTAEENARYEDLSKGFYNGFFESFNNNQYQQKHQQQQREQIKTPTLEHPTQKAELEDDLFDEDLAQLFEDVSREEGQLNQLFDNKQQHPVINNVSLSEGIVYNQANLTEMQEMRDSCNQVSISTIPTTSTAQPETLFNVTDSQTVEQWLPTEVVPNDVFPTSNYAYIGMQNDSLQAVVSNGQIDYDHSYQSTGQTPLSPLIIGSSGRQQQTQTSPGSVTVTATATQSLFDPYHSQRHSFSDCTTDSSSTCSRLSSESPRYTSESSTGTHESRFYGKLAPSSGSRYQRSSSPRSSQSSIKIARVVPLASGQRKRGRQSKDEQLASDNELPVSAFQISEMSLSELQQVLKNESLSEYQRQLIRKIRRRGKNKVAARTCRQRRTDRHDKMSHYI

[1] = target: T2, Ubiquitin-conjugating enzyme E2 N (Homo sapiens, UniProt P61088); type: functional;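 also: Dose-response confirmation in a TR-FRET assay detecting UBC13-driven polyubiquitin chain formation, inhibition measured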
T2 sequence (P61088 whole entry): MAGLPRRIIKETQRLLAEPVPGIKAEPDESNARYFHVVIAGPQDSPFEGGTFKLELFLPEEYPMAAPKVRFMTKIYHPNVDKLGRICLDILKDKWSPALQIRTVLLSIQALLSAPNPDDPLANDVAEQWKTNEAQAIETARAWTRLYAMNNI

[2] = target: Voltage-dependent T-type calcium channel subunit alpha-1H (Homo sapiens, UniProt O95180); type: functional;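 also: channel activity triggered by adding a high calcium stimulation buffer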
cells [3] = type: functional, cell-based
cells [4] = type: functional, cell-based; remark: listed apart in the source
Fatty acid synthase [5] = target: T3, Fatty acid synthase (Homo sapiens, UniProt P49327); test: inhibition of human FAS-TE enzyme activity – biochemical, endpoint fluorescence intensity, uHTS hits, dose response (AID 624327); type: functional;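 also: fluorescence from hydrolysis of an O-methyl fluorescein acyl ester substrate by the enzyme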
Fatty acid synthase [6] = target: T3, Fatty acid synthase; test: inhibition of human FAS-TE enzyme activity – biochemical, kinetic fluorescence intensity, dose response (AID 624326); type: functional;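 also: rate of fluorescence rise from hydrolysis of a fluorogenic O-methyl fluorescein ester substrate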
cells [7] = type: functional
Cytochrome P450 2C19 = Cytochrome P450 2C19 (Homo sapiens, UniProt P33261); test: Cytochrome panel assay with activity outcomes. Panel member name: p450-cyp2c19 Compounds with AC50 equal or less than 10 uM are considered active; type: functional; conditions: read-out: AC50
Cytochrome P450 2C9 = Cytochrome P450 2C9 (Homo sapiens, UniProt P11712)
[8] = THP-1 cell cytotoxicity, dose response, cytotoxicity control for non-replicating M. tuberculosis project (AID 489025); type: functional
[9] = HIV-1 AD8 envelope cell-cell fusion blockers – cherry-pick, dose response (AID 652062); type: functional, cell-based;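 also: luciferase signal from cell-cell fusion driven by HIV-1 clade B AD8 Env; potency is for inhibitors of fusion seen as a drop in luminescence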
[10] = blockers of HIV-1 envelope-mediated cell-cell fusion – cherry-pick, dose response (AID 652057); type: functional, cell-based
[11] = blockers of HIV-1 ZM109 envelope-driven cell-cell fusion – HeLa effector, CEM target cells, luciferase, cherry-pick, dose response (AID 652058); type: functional, cell-based;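 also: luciferase signal from HIV-1 Env mediated cell-cell fusion of effector and target cells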
[12] = off-target signal loss in HeLa-CEM21 co-culture – HeLa F-luc CTL cells, cherry-picked, counter-screen for HIV-1 Env fusion inhibitor project, dose response (AID 652040); type: functional, cell-based;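 also: potency for signal decrease marking cytotoxic or nonspecific inhibition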
[13] = Luminescence Cell-Based Dose Response HTS to Identify Activators of Luciferase Translation or Activity in H4 […] Cells. [Related pubchem assays: 1829 (Project Summary), 1814 (Primary HTS)]; type: functional
H4 = test: Luminescence Cell-Based Dose Response HTS to Identify Activators of 5'UTR Stem-Loop Driven Prion Protein mRNA Translation in H4 Neuroglioblastoma Cells. [Related pubchem assays: 1829 (Project Summary), 1814 (Primary HTS)]; type: functional; conditions: Homo sapiens
[14] = Luminescence Cell-Based Dose Confirmation HTS to Identify Activators of 5'UTR Stem-Loop Driven Alpha-Synuclein mRNA Translation in H4 Neuroglioblastoma Cells. [Related pubchem assays: 1829 (Project Summary), 1814 (Primary HTS)]; type: functional
[15] = target: T4, Heat shock factor protein 1 (Mus musculus, UniProt P38532); test: enhancement of HSF1-driven luciferase signal – cell-based, NIH3T3, luminescence, dose retest, confirmation (AID 435004); type: functional;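 also: stress induced by proteasome inhibitor MG132 added 30 min after compound; luciferase reporter driven by HSF1 response element in NIH3T3 cells; actives raise luminescence as potentiators of the MG132 stress response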
T4 sequence (P38532 whole entry): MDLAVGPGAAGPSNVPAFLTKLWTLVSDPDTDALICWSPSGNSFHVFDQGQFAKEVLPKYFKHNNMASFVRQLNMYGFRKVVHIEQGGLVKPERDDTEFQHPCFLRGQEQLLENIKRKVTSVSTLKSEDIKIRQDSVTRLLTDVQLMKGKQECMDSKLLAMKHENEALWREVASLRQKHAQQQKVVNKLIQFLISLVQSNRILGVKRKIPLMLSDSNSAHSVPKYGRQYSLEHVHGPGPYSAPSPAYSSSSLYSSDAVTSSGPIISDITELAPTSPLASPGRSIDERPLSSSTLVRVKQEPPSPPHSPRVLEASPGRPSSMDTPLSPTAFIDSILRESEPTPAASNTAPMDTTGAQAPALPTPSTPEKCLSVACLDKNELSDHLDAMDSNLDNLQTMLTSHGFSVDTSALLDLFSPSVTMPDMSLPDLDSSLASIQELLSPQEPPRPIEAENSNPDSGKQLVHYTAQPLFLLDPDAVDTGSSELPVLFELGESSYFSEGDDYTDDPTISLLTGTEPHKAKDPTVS

INS1 = test: INS-1E survival protection against cytokine death – cell-based, luminescence, retest, dose response (AID 449756); type: functional; conditions: Rattus norvegicus;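 also: cell death triggered by IL-1 beta plus TNF-alpha plus IFN-gamma mixture; protective hits raise ATP signal compared with cytokine alone wells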
[16] = test system: Streptococcus sp. 'group A'; test: Streptococcus pyogenes SK(-)GAS viability under kanamycin – luminescence, BacTiterGlo, confirmation, counter-screen for streptokinase expression inhibitor project, dose response (AID 1900); type: functional, organism-based
Streptokinase A = target: T5, Streptokinase A (Streptococcus pyogenes serotype M1, UniProt P10520); test: viability-normalized secreted streptokinase activity reduction – plasminogen activation absorbance, OD405, dose response (AID 1914); type: functional, Streptococcus pyogenes M1 GAS;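 also: secreted streptokinase activity via plasminogen activation per viability signal from cell pellet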
T5 sequence (P10520 whole entry): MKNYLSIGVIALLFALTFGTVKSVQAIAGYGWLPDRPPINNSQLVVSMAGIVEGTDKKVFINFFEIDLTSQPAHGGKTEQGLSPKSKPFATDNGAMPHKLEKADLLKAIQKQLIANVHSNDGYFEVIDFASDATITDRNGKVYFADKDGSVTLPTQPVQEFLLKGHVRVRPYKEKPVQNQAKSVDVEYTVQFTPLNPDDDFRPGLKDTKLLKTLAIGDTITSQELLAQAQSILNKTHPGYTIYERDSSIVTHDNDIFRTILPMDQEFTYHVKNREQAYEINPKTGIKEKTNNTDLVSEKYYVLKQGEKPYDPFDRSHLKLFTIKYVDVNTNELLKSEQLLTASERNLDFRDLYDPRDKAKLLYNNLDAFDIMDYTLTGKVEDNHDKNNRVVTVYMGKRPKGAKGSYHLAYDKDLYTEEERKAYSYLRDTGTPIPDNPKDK

Streptococcus = test: GAS UMAA2166 growth inhibition – luminescence, BacTiterGlo, counter-screen for streptokinase expression inhibitor project, dose response (AID 1915); type: functional, organism-based;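 also: potency for reduction of bacterial viability or growth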
[17] = Luminescence Cell-Based Dose Retest to Confirm Inhibitors of Cancer Stem Cells. [Related pubchem assays (depositor defined):AID2717, AID2721]; type: functional; conditions: Homo sapiens
[18] = alpha-synuclein stem-loop luciferase translation blockers – H4 neuroglioma cells, luminescence, confirmation (AID 1988); type: functional, cell-based
[19] = luciferase reporter signal suppression in cells – H4 neuroglioma cells, luminescence, dose response (AID 1990); type: functional, cell-based
[20] = Luminescence Cell-Based Dose Response HTS to Identify Inhibitors of 5'UTR Stem-Loop Driven Prion Protein mRNA Translation in H4 Neuroglioblastoma Cells. [Related pubchem assays: 1827 (Project Summary), 1813 (Primary HTS)]; type: functional

T3 sequence (P49327 whole entry): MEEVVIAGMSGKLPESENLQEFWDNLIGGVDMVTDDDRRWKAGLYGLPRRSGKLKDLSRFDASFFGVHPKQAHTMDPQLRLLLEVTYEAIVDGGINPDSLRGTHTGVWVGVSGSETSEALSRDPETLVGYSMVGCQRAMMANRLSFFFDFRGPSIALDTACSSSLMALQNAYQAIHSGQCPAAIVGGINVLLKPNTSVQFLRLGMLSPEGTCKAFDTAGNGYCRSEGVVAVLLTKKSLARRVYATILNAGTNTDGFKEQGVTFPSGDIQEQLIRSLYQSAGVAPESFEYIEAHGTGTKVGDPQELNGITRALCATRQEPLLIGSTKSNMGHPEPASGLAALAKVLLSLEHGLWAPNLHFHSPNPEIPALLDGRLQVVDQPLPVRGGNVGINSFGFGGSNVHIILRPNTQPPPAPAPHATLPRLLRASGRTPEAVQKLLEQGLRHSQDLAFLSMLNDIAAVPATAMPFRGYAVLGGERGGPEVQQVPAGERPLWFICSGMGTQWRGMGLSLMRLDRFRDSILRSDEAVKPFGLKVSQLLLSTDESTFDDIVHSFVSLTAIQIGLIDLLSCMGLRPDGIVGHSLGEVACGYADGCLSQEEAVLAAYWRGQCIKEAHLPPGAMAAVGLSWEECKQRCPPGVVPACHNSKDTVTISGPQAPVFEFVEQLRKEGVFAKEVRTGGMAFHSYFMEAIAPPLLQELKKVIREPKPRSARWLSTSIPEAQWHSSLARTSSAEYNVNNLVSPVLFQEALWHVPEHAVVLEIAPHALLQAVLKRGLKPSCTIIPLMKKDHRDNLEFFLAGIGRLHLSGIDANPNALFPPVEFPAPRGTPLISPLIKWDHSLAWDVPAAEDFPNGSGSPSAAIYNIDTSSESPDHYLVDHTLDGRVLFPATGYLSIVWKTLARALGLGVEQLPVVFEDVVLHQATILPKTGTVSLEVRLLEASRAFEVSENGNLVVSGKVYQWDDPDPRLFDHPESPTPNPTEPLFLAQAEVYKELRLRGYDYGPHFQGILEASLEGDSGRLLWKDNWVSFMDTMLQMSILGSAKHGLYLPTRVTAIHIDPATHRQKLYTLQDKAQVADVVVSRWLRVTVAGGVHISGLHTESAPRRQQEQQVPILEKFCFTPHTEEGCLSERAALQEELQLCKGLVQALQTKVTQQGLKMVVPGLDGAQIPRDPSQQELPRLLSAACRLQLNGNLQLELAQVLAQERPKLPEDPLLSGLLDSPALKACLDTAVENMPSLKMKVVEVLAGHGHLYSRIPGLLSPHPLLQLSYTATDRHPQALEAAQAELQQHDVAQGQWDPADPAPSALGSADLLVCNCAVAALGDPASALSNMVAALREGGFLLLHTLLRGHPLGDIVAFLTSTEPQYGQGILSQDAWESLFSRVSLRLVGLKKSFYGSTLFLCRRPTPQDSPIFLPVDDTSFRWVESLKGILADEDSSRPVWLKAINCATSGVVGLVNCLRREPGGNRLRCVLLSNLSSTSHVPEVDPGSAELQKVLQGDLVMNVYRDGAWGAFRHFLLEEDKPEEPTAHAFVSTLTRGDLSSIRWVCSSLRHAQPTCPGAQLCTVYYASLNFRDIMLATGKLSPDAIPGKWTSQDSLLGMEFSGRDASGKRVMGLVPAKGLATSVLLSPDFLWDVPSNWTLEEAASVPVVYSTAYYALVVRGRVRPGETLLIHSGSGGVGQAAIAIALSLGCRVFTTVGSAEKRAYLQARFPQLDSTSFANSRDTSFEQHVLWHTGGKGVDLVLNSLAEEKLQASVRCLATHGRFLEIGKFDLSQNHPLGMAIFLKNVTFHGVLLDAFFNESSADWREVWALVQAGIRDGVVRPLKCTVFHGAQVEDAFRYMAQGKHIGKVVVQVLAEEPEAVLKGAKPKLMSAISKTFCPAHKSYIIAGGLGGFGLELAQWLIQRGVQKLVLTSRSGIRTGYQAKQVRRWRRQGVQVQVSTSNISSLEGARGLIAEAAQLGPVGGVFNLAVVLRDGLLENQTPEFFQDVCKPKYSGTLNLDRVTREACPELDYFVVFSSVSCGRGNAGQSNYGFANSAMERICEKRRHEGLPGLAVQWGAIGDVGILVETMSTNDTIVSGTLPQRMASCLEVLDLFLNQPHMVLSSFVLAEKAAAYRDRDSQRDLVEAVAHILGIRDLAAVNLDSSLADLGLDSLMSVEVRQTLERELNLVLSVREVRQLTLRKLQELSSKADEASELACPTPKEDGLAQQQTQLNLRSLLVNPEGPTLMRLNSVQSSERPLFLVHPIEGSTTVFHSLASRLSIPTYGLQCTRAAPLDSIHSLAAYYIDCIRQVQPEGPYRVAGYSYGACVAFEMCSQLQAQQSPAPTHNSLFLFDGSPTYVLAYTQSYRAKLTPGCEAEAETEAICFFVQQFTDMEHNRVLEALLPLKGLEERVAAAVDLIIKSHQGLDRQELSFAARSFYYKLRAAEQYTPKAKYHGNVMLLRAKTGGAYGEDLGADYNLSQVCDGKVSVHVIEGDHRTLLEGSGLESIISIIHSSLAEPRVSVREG
Sequence of Voltage-dependent T-type calcium channel subunit alpha-1H (O95180 whole entry): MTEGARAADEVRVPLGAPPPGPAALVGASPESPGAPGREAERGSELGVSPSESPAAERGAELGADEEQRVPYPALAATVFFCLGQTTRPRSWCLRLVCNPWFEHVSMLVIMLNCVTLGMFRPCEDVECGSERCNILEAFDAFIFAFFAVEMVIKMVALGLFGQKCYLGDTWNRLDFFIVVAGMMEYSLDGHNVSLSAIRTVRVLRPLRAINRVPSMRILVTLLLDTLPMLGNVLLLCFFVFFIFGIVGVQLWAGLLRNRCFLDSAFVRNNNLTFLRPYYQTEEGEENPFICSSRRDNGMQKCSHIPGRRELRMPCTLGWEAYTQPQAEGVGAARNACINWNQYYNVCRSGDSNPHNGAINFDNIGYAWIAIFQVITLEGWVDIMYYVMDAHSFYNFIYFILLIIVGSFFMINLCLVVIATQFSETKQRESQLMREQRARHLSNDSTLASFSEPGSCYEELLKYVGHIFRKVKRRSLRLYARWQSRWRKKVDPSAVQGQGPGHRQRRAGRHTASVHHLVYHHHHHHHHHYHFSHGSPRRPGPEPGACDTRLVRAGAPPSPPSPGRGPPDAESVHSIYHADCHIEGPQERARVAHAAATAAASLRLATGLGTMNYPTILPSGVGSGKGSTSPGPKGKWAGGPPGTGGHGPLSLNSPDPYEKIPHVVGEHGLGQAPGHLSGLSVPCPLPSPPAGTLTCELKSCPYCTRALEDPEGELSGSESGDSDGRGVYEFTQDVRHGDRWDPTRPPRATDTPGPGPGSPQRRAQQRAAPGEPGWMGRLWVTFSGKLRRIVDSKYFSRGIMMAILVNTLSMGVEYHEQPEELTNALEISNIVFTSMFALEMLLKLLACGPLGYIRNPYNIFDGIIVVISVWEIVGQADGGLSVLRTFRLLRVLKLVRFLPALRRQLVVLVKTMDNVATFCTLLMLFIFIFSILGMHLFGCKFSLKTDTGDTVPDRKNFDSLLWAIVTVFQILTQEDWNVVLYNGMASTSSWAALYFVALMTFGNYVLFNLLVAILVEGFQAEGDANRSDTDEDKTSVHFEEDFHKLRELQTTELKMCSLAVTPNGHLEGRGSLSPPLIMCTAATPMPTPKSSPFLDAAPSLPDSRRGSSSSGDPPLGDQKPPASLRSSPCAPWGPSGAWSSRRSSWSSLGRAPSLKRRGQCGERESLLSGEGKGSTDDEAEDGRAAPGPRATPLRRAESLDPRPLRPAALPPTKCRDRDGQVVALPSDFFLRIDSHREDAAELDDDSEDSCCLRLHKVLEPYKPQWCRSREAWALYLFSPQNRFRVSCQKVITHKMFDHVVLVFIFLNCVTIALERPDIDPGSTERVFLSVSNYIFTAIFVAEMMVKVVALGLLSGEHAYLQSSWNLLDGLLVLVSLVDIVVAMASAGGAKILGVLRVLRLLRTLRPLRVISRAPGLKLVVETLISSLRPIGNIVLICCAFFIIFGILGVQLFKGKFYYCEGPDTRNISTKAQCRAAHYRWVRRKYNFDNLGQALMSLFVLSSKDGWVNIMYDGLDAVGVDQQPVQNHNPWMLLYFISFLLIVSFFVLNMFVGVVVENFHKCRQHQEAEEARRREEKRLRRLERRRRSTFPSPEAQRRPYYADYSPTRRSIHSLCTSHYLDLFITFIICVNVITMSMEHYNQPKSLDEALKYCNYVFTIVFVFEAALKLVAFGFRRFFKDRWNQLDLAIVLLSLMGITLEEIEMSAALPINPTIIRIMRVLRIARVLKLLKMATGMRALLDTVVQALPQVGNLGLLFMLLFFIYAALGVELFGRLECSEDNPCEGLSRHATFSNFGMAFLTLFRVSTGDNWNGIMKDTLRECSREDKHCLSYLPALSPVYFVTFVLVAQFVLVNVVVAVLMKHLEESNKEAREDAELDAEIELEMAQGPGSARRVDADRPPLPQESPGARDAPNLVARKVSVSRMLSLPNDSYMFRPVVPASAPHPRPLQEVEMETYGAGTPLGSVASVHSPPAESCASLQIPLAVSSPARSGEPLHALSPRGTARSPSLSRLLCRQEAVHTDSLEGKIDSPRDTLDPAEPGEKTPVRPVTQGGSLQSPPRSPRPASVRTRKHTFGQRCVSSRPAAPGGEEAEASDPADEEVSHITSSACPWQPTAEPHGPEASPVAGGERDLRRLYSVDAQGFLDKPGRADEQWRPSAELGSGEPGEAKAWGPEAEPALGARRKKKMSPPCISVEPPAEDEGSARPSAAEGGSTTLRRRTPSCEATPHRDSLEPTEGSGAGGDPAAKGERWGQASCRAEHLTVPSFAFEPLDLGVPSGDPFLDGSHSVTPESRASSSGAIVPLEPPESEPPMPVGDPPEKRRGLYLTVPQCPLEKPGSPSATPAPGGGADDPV

Cc1cc(NC(=O)CSc2nc3ccccc3c(=O)n2Cc2ccc(F)cc2)no1
IC50 (Protein skinhead-1): 82.4 µM (inactive)

Cc1cc(C)n(Cc2ccc(C(=O)NCc3ccco3)o2)n1
IC50 (Protein skinhead-1): > 100 µM (inactive)

COc1cccc(NC(=O)CSc2nc3ccccc3c(=O)n2CCCC(=O)NCCCN2CCOCC2)c1
IC50 [1]: > 20 µM (inactive)

COc1cccc(N2CCN(CC(=O)Nc3nnc(-c4ccccc4)s3)CC2)c1
EC50 [2]: 6.4 µM (active)

COc1ccc(NC(=O)c2cccc(NC(=O)c3ccco3)c2)c(OC)c1
EC50 (cells [3]): > 350 µM (not active)
EC50 (cells [4]): > 350 µM (not active)

COc1cccc(C(c2sc3ncnn3c2O)N2CC(C)OC(C)C2)c1 (stereo not drawn)
IC50 (Protein skinhead-1): > 100 µM (inactive)

O=C(CN1CCN(c2ccccc2)CC1)Nc1cccc([N+](=O)[O-])c1
IC50 (Fatty acid synthase [5]): 9.24 µM (active)
IC50 (Fatty acid synthase [6]): 10.7 µM (active)

Cc1ccccc1CSCCNC(=O)CN(c1ccc2c(c1)OCO2)S(C)(=O)=O
EC50 [2]: 5 µM (active)

N#Cc1ccsc1NC(=O)C1CCN(C(=O)c2ccc(Cl)cc2)CC1
IC50 [1]: > 20 µM (inactive)

O=C(COC(=O)CCc1c[nH]c2ccccc12)Nc1cc([N+](=O)[O-])ccc1Cl
IC50 (Fatty acid synthase [5]): 15.2 µM (active)
IC50 (cells [7]): 4.54 µM (active)
IC50 (Fatty acid synthase [6]): 10.7 µM (active)

Cc1ccc(C)c(N2CCN(C(=O)CC3Sc4ccccc4NC3=O)CC2)c1 (stereo not drawn)
EC50 [2]: 3.76 µM (active)

COCCNC(=O)c1sc2nc(-c3ccccc3)cn2c1C
EC50 (cells [3]): > 350 µM (not active)
AC50 (Cytochrome P450 2C19): 20 µM (inconclusive)
AC50 (Cytochrome P450 2C9): 28.2 µM (inconclusive)
EC50 (cells [4]): > 350 µM (not active)

CCCCN1CCC(O)(c2ccccc2)C(C(=O)c2ccccc2)C1 (stereo not drawn)
CC50 [8]: > 40 µM (active)
IC50 (cells [7]): 29.6 µM (active)

CC(=O)c1cccc(NS(=O)(=O)c2ccc3c(c2)oc(=O)n3C)c1
IC50 (Protein skinhead-1): > 100 µM (inactive)

COc1ccc(Cn2nnnc2C(c2cc3cc(C)cc(C)c3nc2O)N2CCOCC2)cc1 (stereo not drawn)
AC50 [9]: 5.51 µM (active)
AC50 [10]: 3.39 µM (active)
AC50 [11]: 4.35 µM (active)
AC50 [12]: 4.7 µM (active)

CCC(=O)Nc1ccc(S(=O)(=O)N2CCc3ccccc3C2)cc1
EC50 [2]: 7.83 µM (active)

CCN(CC)S(=O)(=O)c1ccc(N2CCOCC2)c(NC(=O)c2cccc3ccccc23)c1
EC50 (cells [3]): > 350 µM (not active)
EC50 (cells [4]): > 350 µM (not active)

C=CCNc1nnc(Sc2ncccc2[N+](=O)[O-])s1
EC50 [13]: 10.3 µM (inconclusive)
CC50 [8]: 33.4 µM (active)
EC50 (H4): 17.8 µM (active)
IC50 (cells [7]): 3.81 µM (active)
EC50 [14]: > 120 µM (not active)

CC(C(=O)N1c2ccccc2Sc2ccccc21)n1nnc(-c2cccs2)n1 (stereo not drawn)
EC50 [2]: 6.38 µM (active)

N#C/C(=C\c1cn(CCOc2ccccc2)c2ccccc12)C(=O)NCC1CCCO1 (stereo not drawn)
EC50 [2]: 5.31 µM (active)

O=[N+]([O-])c1cccc(NC(=S)N2CCc3ccccc3C2)c1
IC50 (Fatty acid synthase [5]): 16.5 µM (active)
IC50 (Fatty acid synthase [6]): 10.6 µM (active)

c1ccc(Cn2nnnc2C(c2cccs2)N2CCc3ccccc3C2)cc1 (stereo not drawn)
EC50 [2]: 0.844 µM (active)
EC50 [15]: > 260 µM (inactive)

CC[C@@]12C(=O)N(c3ccc(C)cc3)C(=O)N1[C@H](c1ccc(OC)cc1)[C@@H]1C(=O)N(C(C)(C)C)C(=O)[C@@H]12
AC50 [9]: 3.09 µM (active)
AC50 [10]: 2.37 µM (active)
AC50 [11]: 2.86 µM (active)
AC50 [12]: 4.94 µM (active)

Clc1cccc(OCc2nc(-c3ccncc3)no2)c1
IC50 (Protein skinhead-1): 26.6 µM (active)

CCCCCc1cc(=O)oc2c(C(CCN(CC)CC)c3ccc(OC)cc3)c(OC)cc(OC)c12 (stereo not drawn)
AC50 (INS1): 10.8 µM (active)
IC50 [1]: > 20 µM (inactive)

COc1ccc(CCC(C)NCc2cc(OC)cc(OC)c2)cc1 (stereo not drawn)
AC50 [9]: 14.1 µM (active)
AC50 [10]: 6.55 µM (active)
AC50 [11]: 9.46 µM (active)
AC50 [12]: 7.92 µM (active)

O=C(N/N=C/C(Br)=C\c1ccccc1)c1ccco1
EC50 (cells [3]): 13.8 µM (active)
EC50 (cells [4]): > 350 µM (not active)

Cc1nc2ccccc2c(=O)n1/N=C/c1ccc2ccccc2c1O
EC50 (cells [3]): > 350 µM (not active)
EC50 [16]: 44.6 µM (active)
EC50 (Streptokinase A): > 150 µM (not active)
EC50 (cells [4]): > 350 µM (not active)
EC50 (Streptococcus): > 150 µM (not active)

O=C(CNC(=O)C(c1ccccc1)c1ccccc1)N/N=C/c1ccc(O)cc1O
EC50 (cells [3]): > 350 µM (not active)
EC50 (cells [4]): 17.5 µM (active)
AC50 [17]: 2.59 µM (active)

CCCc1ccc(OCc2ccc(C(=O)N/N=C/c3cccnc3)o2)cc1
CC50 [8]: > 40 µM (active)
IC50 (cells [7]): 47.6 µM (active)

Cc1cc(C)nc(N/N=C/C2=C(O)CC(c3ccccc3)CC2=O)n1 (stereo not drawn)
EC50 (cells [3]): > 350 µM (not active)
EC50 [18]: 11.3 µM (active)
EC50 [19]: 14.7 µM (active)
EC50 (cells [4]): > 350 µM (not active)
EC50 [20]: 14.5 µM (active)
